Patent US20090203718A1, “CANCER TREATMENT METHOD” (SmithKline Beecham (Cork) Ltd., priority 2006, published 2009)

Key:
Type in all cases: cell-based, human
[1] = test system: A549 cells; test: Apoptosis, Roche Cell Death ELISA and Caspase-3/7 (FIG. 1); conditions: for apoptosis: agent alone, 24 h
Procedure: (§1) A549 cells were grown in RPMI-1640 supplemented with 25 mM HEPES, 10 mM glutamine and 10% fetal bovine serum and maintained at 37° C. and 5% CO2 in a humid incubator. Colo205 and MDA-MB-468 cells were grown in DMEM supplemented with 25 mM HEPES, 10 mM glutamine, 4.5 g/L d-glucose, and 10% fetal bovine serum. Assays were performed in 96 well microtiter plates with optimum seeding densities for each cell line.
(§2) Apoptosis was measured using the Roche Cell Death ELISA^Plus kit (catalog 1 774 425) which detects fragmented nucleosomal DNA that is generated during apoptosis.
(§3) Cell death was measured using the Roche Cell Death ELISA^Plus kit and Promega Apo-ONE™ Homogeneous Caspase-3/7 Assay. Total cell number was measured using the Celltiter Glo® Luminescent Cell Viability Assay and cell proliferation was measured with the Roche BrdU Cell Proliferation ELISA assay.

[2] = test system: MDA-MB-468 cells; test: Cell proliferation, BrdU ELISA and Celltiter Glo (FIG. 3)
Procedure: (§4) Colo205 and MDA-MB-468 cells were grown in DMEM supplemented with 25 mM HEPES, 10 mM glutamine, 4.5 g/L d-glucose, and 10% fetal bovine serum. Assays were performed in 96 well microtiter plates with optimum seeding densities for each cell line.
(§5) Cell proliferation was measured using the Celltiter Glo® Luminescent Cell Viability Assay available from Promega Corporation and the Roche BrdU Cell Proliferation ELISA assay.
as §3

[3] = test system: Colo205 cells; test: Cell proliferation, BrdU ELISA and Celltiter Glo (FIG. 2)
Procedure: as §4, §5, §3

[4] = test system: Colo205 cells; test: Apoptosis, Roche Cell Death ELISA and Caspase-3/7 (FIG. 2); conditions: for apoptosis: agent alone, 24 h
Procedure: as §1, §2, §3

[5] = test system: A549 cells; test: Cell proliferation, BrdU ELISA and Celltiter Glo (FIG. 1)
[6] = test system: MDA-MB-468 cells; test: Apoptosis, Roche Cell Death ELISA and Caspase-3/7 (FIG. 3); conditions: for apoptosis: agent alone, 24 h
Procedure: as §1, §2, §3

[7] = 1:1 molar ratio with GW572016, 24 h

Structure (SMILES)	apoptosis, combination versus either agent alone [1, 7]	apoptosis [1]	cell proliferation, combination versus either agent alone [2, 7]	cell proliferation ([2]; agent alone, 24 h)	cell proliferation, combination versus either agent alone [3, 7]	cell proliferation ([3]; agent alone, 24 h)	apoptosis, combination versus either agent alone [4, 7]	apoptosis [4]	cell proliferation, combination versus either agent alone [5, 7]	cell proliferation ([5]; agent alone, 24 h)	apoptosis, combination versus either agent alone [6, 7]	apoptosis [6]
Nc1ncnc2c1c(-c1cccc(OCc3ccccc3)c1)cn2[C@H]1C[C@@H](CN2CCCC2)C1 [GSK621659A]	more effective than either agent alone	increased apoptosis	more effective than either agent alone	decreased cell proliferation	more effective than either agent alone	decreased cell proliferation	more effective than either agent alone	increased apoptosis	more effective than either agent alone	decreased cell proliferation	more effective than either agent alone	increased apoptosis
CS(=O)(=O)CCNCc1ccc(-c2ccc3ncnc(Nc4ccc(OCc5cccc(F)c5)c(Cl)c4)c3c2)o1 [GW572016, N-{3-Chloro-4-[(3-fluorobenzyl)oxy]phenyl}-6-[5-({[2-(methanesulphonyl)ethyl]amino}methyl)-2-furyl]-4-quinazolinamine ditosylate monohydrate]		increased apoptosis						increased apoptosis				increased apoptosis
